Laboratory results as given in patent publication US6365734B1, “Cucurbituril derivatives, their preparation methods and uses” (Pohang University of Science and Technology Foundation, priority 1999, dated 2002).

Columns and labels:
[1] = Complex formation with anti-cancer drug, drug carrier test (NMR); format: binding; details: in water
Description: The following example is for investigating the function of the cucurbituril derivatives obtained in Synthesis Examples 1 through 10, as a drug carrier. In the following example, cisplatin, an anti-cancer drug, was used.
2.0 mg of Cis-dichloroethylenediamine platinum (II) and 2.0 mg of cucurbit[8]uril were dissolved in water.

[2] = Ternary complex formation, amino acid sensing (NMR); format: binding; details: methylviologen, tyrosine and host, D2O, heated
Description: 5.0 mM of methylviologendichloride solution, and 5.0 mM of tyrosine solution were prepared using D2O solvent. 0.25 ml of each solution was mixed with 2.1 mg of cucurbit[8]uril. Next, the mixture was heated until the color changed into yellow.

[3] = Inclusion complex formation in water; format: binding; details: guest cyclam, heating then slow cooling
Description: 13.0 mg of cyclam tetrahydrochloride (1,4,8,11-tetraazacyclotetradecane tetrahydrochloride) and 10.0 mg of cucurbit[8]uril were dissolved in water.

[4] = Inclusion complex formation in water; format: binding; details: guest cyclen, heating then slow cooling
Description: 120.0 mg of cyclen tetrahydrochloride ([…] tetrahydrochloride) and 100.0 mg of cucurbit[8]uril were dissolved in water.

[5] = Host-guest complex formation in water (NMR); format: binding; details: guest 2,6-Bis(4,5-dihydro-1H-imidazol-2-yl)naphthalene dihydrochloride
Description: 5.80 mg of 2,6-Bis(4,5-dihydro-1H-imidazol-2-yl)naphthalene dihydrochloride and 5.0 mg of cucurbit[8]uril were dissolved in water.
4.35 mg of 2,6-Bis(4,5-dihydro-1H-imidazol-2-yl)naphthalene dihydrochloride and 5.0 mg of cucurbit[7]uril were dissolved in water.

[6] = Ternary complex formation, amino acid sensing (NMR); format: binding; details: methylviologen, tryptophan and host, D2O, heated
Description: 5.0 mM of methylviologendichloride solution, and 5.0 mM of tryptophan solution were prepared using D2O solvent. 0.25 ml of each solution was mixed with 2.1 mg of cucurbit[8]uril. Next, the mixture was heated until the color changed into red.

[7] = Ternary complex formation, nucleic acid base sensing (NMR); format: binding; details: methylviologen, thymine and host, D2O, heated
Description: 5.0 mM of methylviologendichloride solution, and 5.0 mM of thymine solution were prepared using D2O solvent. 0.25 ml of each solution was mixed with 2.1 mg of cucurbit[8]uril. Next, the mixture was heated until the color changed into yellow.

[8] = Complex formation with herbicide (NMR); format: binding; details: methylviologen and host, D2O
Description: Methylviologendichloride (so-called paraquat), a herbicide, was used. 5.0 mM of mehylbiologendichloride solution was prepared with D2O solvent. Next, cucurbit[8]uril was added to the solution.

[9] = Organic dye removal from water, UV absorption of filtrate
Description: 30 mg of organic dye, Direct Red 5B (commercially available from Ciba-Geigy Co.) was dissolved in 150 ml of water to prepare an organic dye solution. To half the organic dye solution, 150 mg of cucurbit[7]uril was added and stirred for 30 minutes.
The precipitate was filtered, and UV absorption spectra were measured at λmax=510 nm on the filtrate and the remaining half of the organic dye solution which was not treated with the cucurbut[7]uril.
R=UV absorption intensity of the dye solution treated with cucurbit[7]uril ×100/UV absorption intensity of the dye solution before the treatment with cucurbit[7]uril.
The following dyes were used: Reactive Blue HE-G (produced by Kyung-In Co.), Direct Solophenyl Violet 4BL (produced by Ciba-Geigy Co.), Reactive Navy Blue HE-R 150 (produced by Kyung-In Co.), Disperse Yellow E-3 (produced by LG Co.), Disperse T/Q Blue S-GL (produced by LG Co.) and Orange TGL (produced by Ciba-Geigy Co.).

[10] = Inclusion complex formation in water; format: binding; details: guest 1-aminoadamantane, addition of methanol
Description: 24.2 mg of 1-aminoadanmatane hydrochloride and 50.0 mg of cucurbi[7]uril were dissolved in water.

[11] = Binding constant by microcalorimeter (VP-ITC); details: water/formic acid 1:1 by volume, 1.0 mM host
Description: Distilled water and formic acid were mixed in a ratio of 1:1: by volume. Next, 1.0 mM of cucurbit[5]uril derivative was prepared with the diluted formic acid. 20.0 mM of aqueous solution containing ammonium ions, and positive ions of alkaline metals, such as lithium, sodium and potassium, was prepared. Then, the binding constants of the cucurbit[5]uril derivative with these ions were measured using a microcalorimeter (VP-ITC, manufactured by MicroCal). As a result, the cucurbit[5]uril derivative has a binding constant of 5.4×10^3M^−1 with ammonium ions, 3.3×10^2M^−1 with positive lithium ions, 4.5×10^3M^−1 with positive sodium ions, and 2.6×10^4M^−1 with positive potassium ions. The cucurbit[5]uril derivative can selectively bind with alkali metal ions, as well as with ammonium ions. The result confirms that cucurbituril derivatives can be used as ion sensors.

Question: Which results are given for `O=C1N2CN3C(=O)N4CN5C(=O)N6CN7C(=O)N8CN9C(=O)N%10CN%11C(=O)N%12CN%13C(=O)N%14CN%15C(=O)N%16CN1C1C2N2CN%17C(=O)N(CN%18C(=O)N(CN%19C(=O)N(CN%20C(=O)N(CN%21C(=O)N(CN%22C(=O)N(CN%23C(=O)N(CN1C2=O)C%16C%15%23)C%14C%13%22)C%12C%11%21)C%10C9%20)C8C7%19)C6C5%18)C4C3%17` (stereo not shown) [cucurbit[8]uril]?
Answer: complex formation and stoichiometry (platinum compound : host) [1]: quantitative formation of a 2:1 complex; complex formation and stoichiometry [2]: quantitative formation of a 1:1:1 complex; inclusion complex formation [3]: produced an inclusion complex; inclusion complex formation [4]: produced an inclusion complex; host-guest complex formation and stoichiometry [5]: quantitative formation of a 1:2 host-guest complex; complex formation and stoichiometry [6]: quantitative formation of a 1:1:1 complex; complex formation and stoichiometry [7]: quantitative formation of a 1:1:1 complex; complex formation and stoichiometry [8]: quantitative formation of a 1:1 complex

Question: With cucurbit[7]uril as the molecule, how does the “host-guest complex formation and stoichiometry” value [5] read?
Answer: quantitative formation of a 1:1 host-guest complex

Question: And the R ([9]; Direct Red 5B, 510 nm, R = intensity after treatment ×100 / intensity before)?
Answer: 1.7%

Question: And the R ([9]; Direct Solophenyl Violet 4BL, 546 nm, R = intensity after ×100 / before)?
Answer: 1.3%

Question: And the R ([9]; Disperse T/Q Blue S-GL 200, 776 nm, R = intensity after ×100 / before)?
Answer: 0.8%

Question: And the R ([9]; Disperse Yellow E-3, 429 nm, R = intensity after ×100 / before)?
Answer: 3.0%

Question: What about the R ([9]; Orange TGL, 419 nm, R = intensity after ×100 / before) of the same molecule?
Answer: 5.4%

Question: And the R ([9]; Reactive Blue HE-G, 626 nm, R = intensity after ×100 / before)?
Answer: 0.3%

Question: What about the R ([9]; Reactive Blue HE-G, 662 nm, R = intensity after ×100 / before) of the same molecule?
Answer: 0.3%

Question: And the R ([9]; Reactive Navy Blue HE-R 150, 609 nm, R = intensity after ×100 / before)?
Answer: 0.6%

Question: What about the inclusion complex formation [10] of the same molecule?
Answer: produced an inclusion complex

Question: With `O=C1N2CN3C(=O)N4CN5C(=O)N6CN7C(=O)N8CN9C(=O)N%10CN1C1C2N2CN%11C(=O)N(CN%12C(=O)N(CN%13C(=O)N(CN%14C(=O)N(CN1C2=O)C%10C9%14)C8C7%13)C6C5%12)C4C3%11` (stereo not shown) [cucurbit[5]uril] as the molecule, how does the “binding constant with ammonium ions” value [11] read?
Answer: 5400 M⁻¹

Question: And the “binding constant with positive lithium ions” value [11]?
Answer: 330 M⁻¹

Question: What about the “binding constant with positive potassium ions” value [11] of the same molecule?
Answer: 26000 M⁻¹

Question: What about the “binding constant with positive sodium ions” value [11] of the same molecule?
Answer: 4500 M⁻¹
